# Results: ChEMBL document CHEMBL2331514, “Structure-based design and synthesis of novel pseudosaccharine derivatives as antiproliferative agents and kinase inhibitors” (Eur J Med Chem, 2013)
# Assay: Partition coefficient, log P of the compound
# Type: physicochemical
# Conditions: octanol/water
row,logP,SMILES
1,1.26,O=C(O)CCC(=O)Nc1ccc2c(c1)C(Nc1cccc(Br)c1)=NS2(=O)=O
2,2.48,CCOC(=O)C(=CNc1ccc2c(c1)C(Nc1cccc(Br)c1)=NS2(=O)=O)C(=O)OCC
3,2.39,CCOC(=O)C(=CNc1ccc2c(c1)C(Nc1ccc(Cl)cc1)=NS2(=O)=O)C(=O)OCC
4,3.64,O=C(Nc1ccc(Br)cc1)Nc1ccc(OC2=NS(=O)(=O)c3ccccc32)cc1
5,3.55,O=C(Nc1ccc(Cl)cc1)Nc1ccc(OC2=NS(=O)(=O)c3ccccc32)cc1
6,3.57,O=C(Nc1ccccc1)Nc1ccc2c(c1)C(Nc1ccc(Cl)cc1Cl)=NS2(=O)=O
